Source: PubChem BioAssay AID328 (DTP/NCI, 2004)
Values joined by “and” are separate entries in the source; they are usually repeats but may differ in a detail not shown here. Equal values may be shown once. Toxic doses and inconclusive results are not listed. How the source made its calls: active means survival T/C of 150% or more; inactive means T/C below 125% in these data. Non-standard residues stand in square brackets, D forms with d. Residues, ends and D or L forms follow the SMILES beside them. ξ: configuration not given here. ξPhe(4-N(CH2CH2Cl)2) = NC(Cc1ccc(N(CCCl)CCCl)cc1)C(=O)O

Test system: BDF1 mice, P388 leukemia ip, median survival T/C
Assay: NCI In Vivo Anticancer Drug Screen. Data for tumor model P388 Leukemia (intraperitoneal) in B6D2F1 (BDF1) mice
Conditions: endpoint: median survival time, higher = longer survival
Summary of the method: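 Antitumour effect was judged in vivo: survival in drug-treated mice, normalised to that of vehicle-dosed controls, gives the reported T/C.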

[1] = dose: 3.0 mg/kg/injection, schedule: Q01DX009 (ip), vehicle: Klucel (hydroxypropylcellulose) (HPC)
[2] = dose: 6.0 mg/kg/injection, schedule: Q01DX009 (ip), vehicle: Klucel (hydroxypropylcellulose) (HPC)
[3] = dose: 12.5 mg/kg/injection, schedule: Q01DX009 (ip), vehicle: saline with Tween-80
[4] = dose: 50.0 mg/kg/injection, schedule: Q01DX009 (ip), vehicle: saline with Tween-80
[5] = dose: 200.0 mg/kg/injection, schedule: Q01DX009 (ip), vehicle: saline with Tween-80
[6] = dose: 100.0 mg/kg/injection, schedule: Q01DX009 (ip), vehicle: saline
[7] = dose: 200.0 mg/kg/injection, schedule: Q01DX009 (ip), vehicle: saline
[8] = dose: 400.0 mg/kg/injection, schedule: Q01DX009 (ip), vehicle: saline
[9] = dose: 25.0 mg/kg/injection, schedule: Q01DX009 (ip), vehicle: saline with Tween-80

Measured: T/C

CC(=O)C(C(C)=O)c1ccccc1.CC(=O)C(C(C)=O)c1ccccc1.[Ni]
inactive: [1] 110 % of control | [2] 100 % of control | dose: 6.0 mg/kg/injection, schedule: Q04DX003 (ip), vehicle: other 100 % of control | dose: 12.0 mg/kg/injection, schedule: Q01DX009 (ip), vehicle: Klucel (hydroxypropylcellulose) (HPC) 100 % of control | dose: 12.0 mg/kg/injection, schedule: Q04DX003 (ip), vehicle: other 95 % of control | dose: 25.0 mg/kg/injection, schedule: Q04DX003 (ip), vehicle: other 100 % of control

O=C1C=CC(=O)c2c(Cl)ccc(O)c21
inactive: dose: 0.63 mg/kg/injection, schedule: Q01DX009 (ip), vehicle: Klucel (hydroxypropylcellulose) (HPC) 116 % of control

CC(Oc1ccccc1-c1ccccc1)C(=O)N(C)C (stereo not given)
inactive: [3] 100 % of control | [4] 121 % of control and 124 % of control | dose: 100.0 mg/kg/injection, schedule: Q01DX009 (ip), vehicle: saline with Tween-80 97 % of control and 105 % of control | [5] 112 % of control

CCCCCCCCCCCS(=O)(=O)C(CCOS(C)(=O)=O)COS(C)(=O)=O (stereo not given)
inactive: dose: 100.0 mg/kg/injection, schedule: Q04DX003 (ip), vehicle: Klucel (hydroxypropylcellulose) (HPC) 95 % of control | dose: 200.0 mg/kg/injection, schedule: Q04DX003 (ip), vehicle: Klucel (hydroxypropylcellulose) (HPC) 100 % of control | dose: 400.0 mg/kg/injection, schedule: Q04DX003 (ip), vehicle: Klucel (hydroxypropylcellulose) (HPC) 100 % of control

Cc1ccc(NCCN2CCOCC2)c2c(=O)c3ccccc3sc12
inactive: [6] 90 % of control | dose: 100.0 mg/kg/injection, schedule: Q04DX003 (ip), vehicle: saline 110 % of control | [7] 109 % of control | dose: 200.0 mg/kg/injection, schedule: Q04DX003 (ip), vehicle: saline 110 % of control | [8] 122 % of control | dose: 400.0 mg/kg/injection, schedule: Q04DX003 (ip), vehicle: saline 110 % of control

O/N=c1\cc(-c2ccccc2)oc2ccccc12
inactive: dose: 3.13 mg/kg/injection, schedule: Q01DX009 (ip), vehicle: saline with Tween-80 95 % of control | dose: 6.25 mg/kg/injection, schedule: Q01DX009 (ip), vehicle: saline with Tween-80 95 % of control | [3] 112 % of control | [9] 123 % of control

CN(C)Cc1cccc(N)c1
inactive: dose: 0.25 mg/kg/injection, schedule: Q01DX009 (ip), vehicle: water 120 % of control | dose: 0.5 mg/kg/injection, schedule: Q01DX009 (ip), vehicle: water 111 % of control | dose: 1.0 mg/kg/injection, schedule: Q01DX009 (ip), vehicle: water 113 % of control | dose: 2.0 mg/kg/injection, schedule: Q01DX009 (ip), vehicle: water 120 % of control | dose: 4.0 mg/kg/injection, schedule: Q01DX009 (ip), vehicle: water 92 % of control | dose: 12.5 mg/kg/injection, schedule: Q04DX003 (ip), vehicle: water 100 % of control | dose: 25.0 mg/kg/injection, schedule: Q04DX003 (ip), vehicle: water 100 % of control | dose: 50.0 mg/kg/injection, schedule: Q04DX003 (ip), vehicle: water 91 % of control | dose: 100.0 mg/kg/injection, schedule: Q04DX003 (ip), vehicle: water 97 % of control

CSc1nc(N)nc2c1ncn2C1CC(O)C(CO)O1 (stereo not given)
inactive: dose: 50.0 mg/kg/injection, schedule: Q01DX009 (ip), vehicle: saline 95 % of control | [6] 95 % of control and 101 % of control | [7] 100 % of control | [8] 97 % of control

O=C1Nc2ccccc2C12Nc1cccnc1N2 (stereo not given)
inactive: dose: 50.0 mg/kg/injection, schedule: Q01DX001 (ip), vehicle: saline with Tween-80 91 % of control | dose: 100.0 mg/kg/injection, schedule: Q01DX001 (ip), vehicle: saline with Tween-80 87 % of control | dose: 200.0 mg/kg/injection, schedule: Q01DX001 (ip), vehicle: saline with Tween-80 91 % of control

S=c1[nH]cc2cnccn12
inactive: [9] 110 % of control | [4] 115 % of control | dose: 100.0 mg/kg/injection, schedule: Q04DX003 (ip), vehicle: saline with Tween-80 100 % of control | [5] 105 % of control | dose: 200.0 mg/kg/injection, schedule: Q04DX003 (ip), vehicle: saline with Tween-80 110 % of control

CCCn1c(=S)[nH]c2ccccc2c1=O
inactive: dose: 100.0 mg/kg/injection, schedule: Q01DX001 (ip), vehicle: Klucel (hydroxypropylcellulose) (HPC) 100 % of control | dose: 200.0 mg/kg/injection, schedule: Q01DX001 (ip), vehicle: Klucel (hydroxypropylcellulose) (HPC) 100 % of control | dose: 400.0 mg/kg/injection, schedule: Q01DX001 (ip), vehicle: Klucel (hydroxypropylcellulose) (HPC) 100 % of control

Cc1ccc([I+]c2ccc(C)cc2C)c(C)c1
inactive: dose: 0.19 mg/kg/injection, schedule: Q01DX009 (ip), vehicle: Klucel (hydroxypropylcellulose) (HPC) 90 % of control | dose: 0.39 mg/kg/injection, schedule: Q01DX009 (ip), vehicle: Klucel (hydroxypropylcellulose) (HPC) 90 % of control | dose: 0.78 mg/kg/injection, schedule: Q01DX009 (ip), vehicle: Klucel (hydroxypropylcellulose) (HPC) 100 % of control | dose: 1.17 mg/kg/injection, schedule: Q04DX003 (ip), vehicle: Klucel (hydroxypropylcellulose) (HPC) 104 % of control | dose: 1.5 mg/kg/injection, schedule: Q01DX009 (ip), vehicle: Klucel (hydroxypropylcellulose) (HPC) 90 % of control | dose: 1.56 mg/kg/injection, schedule: Q01DX009 (ip), vehicle: Klucel (hydroxypropylcellulose) (HPC) 87 % of control | dose: 2.34 mg/kg/injection, schedule: Q04DX003 (ip), vehicle: Klucel (hydroxypropylcellulose) (HPC) 108 % of control | [1] 100 % of control and 103 % of control | dose: 4.68 mg/kg/injection, schedule: Q04DX003 (ip), vehicle: Klucel (hydroxypropylcellulose) (HPC) 113 % of control | [2] 103 % of control | dose: 6.6 mg/kg/injection, schedule: Q04DX003 (ip), vehicle: Klucel (hydroxypropylcellulose) (HPC) 100 % of control | dose: 10.0 mg/kg/injection, schedule: Q04DX003 (ip), vehicle: Klucel (hydroxypropylcellulose) (HPC) 113 % of control | dose: 12.0 mg/kg/injection, schedule: Q04DX003 (ip), vehicle: Klucel (hydroxypropylcellulose) (HPC) 100 % of control | dose: 12.5 mg/kg/injection, schedule: Q04DX003 (ip), vehicle: Klucel (hydroxypropylcellulose) (HPC) 103 % of control | dose: 25.0 mg/kg/injection, schedule: Q04DX003 (ip), vehicle: Klucel (hydroxypropylcellulose) (HPC) 100 % of control | dose: 50.0 mg/kg/injection, schedule: Q04DX003 (ip), vehicle: Klucel (hydroxypropylcellulose) (HPC) 91 % of control

CN(C)c1ccc(/C=C2\C=Cc3ccccc32)cc1F
inactive: dose: 44.0 mg/kg/injection, schedule: Q04DX003 (ip), vehicle: saline sonified 90 % of control | dose: 66.0 mg/kg/injection, schedule: Q04DX003 (ip), vehicle: saline sonified 100 % of control | dose: 100.0 mg/kg/injection, schedule: Q01DX009 (ip), vehicle: saline sonified 104 % of control | dose: 100.0 mg/kg/injection, schedule: Q04DX003 (ip), vehicle: saline sonified 90 % of control | dose: 150.0 mg/kg/injection, schedule: Q04DX003 (ip), vehicle: saline sonified 95 % of control | dose: 200.0 mg/kg/injection, schedule: Q01DX009 (ip), vehicle: saline sonified 100 % of control | dose: 200.0 mg/kg/injection, schedule: Q04DX003 (ip), vehicle: saline sonified 110 % of control | dose: 400.0 mg/kg/injection, schedule: Q01DX009 (ip), vehicle: saline sonified 104 % of control | dose: 400.0 mg/kg/injection, schedule: Q04DX003 (ip), vehicle: saline sonified 120 % of control

CCOC(=O)C(Cc1ccc(N(CCCl)CCCl)cc1)NC(=O)C(Cc1ccccc1)NC(=O)C(NC(=O)CNC(=O)C1CCCN1)C(C)C (stereo not given) (H-PGVF[ξPhe(4-N(CH2CH2Cl)2)]-OEt; configuration not given here)
inactive: dose: 5.0 mg/kg/injection, schedule: Q04DX003 (ip), vehicle: water 95 % of control | dose: 10.0 mg/kg/injection, schedule: Q04DX003 (ip), vehicle: water 100 % of control
active: dose: 20.0 mg/kg/injection, schedule: Q04DX003 (ip), vehicle: water 176 % of control | dose: 40.0 mg/kg/injection, schedule: Q04DX003 (ip), vehicle: water 241 % of control | dose: 80.0 mg/kg/injection, schedule: Q04DX003 (ip), vehicle: water 265 % of control

C1CC[CH]([Sn]([CH]2CCCCC2)[CH]2CCCCC2)CC1
inactive: dose: 0.78 mg/kg/injection, schedule: Q01DX009 (ip), vehicle: saline with Tween-80 98 % of control | dose: 1.56 mg/kg/injection, schedule: Q01DX009 (ip), vehicle: saline with Tween-80 89 % of control
